Results from paper PMC12692861, “Biotin-Linked Ursolic Acid Conjugates as Selective Anticancer Agents and Target-Identification Tools for Cancer Therapy” (Molecules, 2025).

Key:
5637 cells = experiment: ROS estimation with H2DCFDA; format: cell-based, human; conditions: 5637, 24 h, especially at concentrations above 20 µM
Protocol: (§1) Since 5c was not toxic to non-tumorigenic cells, such as MCF12A and UROtsa, these cells were excluded from experiments aimed at identifying the broad mechanism of cytotoxicity. A common mechanism by which these antioxidants induce cytotoxicity in tumor cells is by generating Reactive Oxygen Species (ROS) selectively in fast-growing tumor cells. The levels of ROS generated by 5c exposed cells were evaluated with the oxidation of 2′,7′-dichlorodihydrofluorescein diacetate (H2DCFDA). It is a cell-permeant fluorescent probe used for detecting ROS production (Thermo Scientific Inc., Waltham, MA, USA). […] Figure 3 illustrates the quantification of intracellular ROS levels in four bladder cancer cell lines, 5637, T24, HT-1376, and MB49, following treatment with UA and its biotin-conjugated derivative, compound 5c.
(§2) The relative levels of intracellular ROS produced in untreated and drug-treated cells were analyzed by fluorimetry using the fluorescent probe H2DCFDA (Sigma-Aldrich, #D6883, St. Louis, MI, USA), as described previously. Briefly, cells cultured in a 96-well plate at 1 × 10^4 cells per well were treated with drugs of interest for 24 h rinsed with sterile PBS to remove excess drugs, and incubated with 10 μM DCFDA for 30 min at 37 °C and 5% CO2. Following three rinses with PBS, the fluorescence intensity was recorded at excitation: 485/20, emission: 528/20 using a BioTek Synergy HTX Multimode fluorescence plate reader (Agilent Technologies, Inc., Santa Clara, CA, USA), and the data were represented as percentage change compared to the respective untreated control.
(§3) Figure 3 Estimation of oxidative stress: Treatment with UA or 5c increased ROS levels in various bladder cancer cells. ROS levels were estimated at 24 h using DCFDA. The relative fluorescence unit (RFU) was normalized to that observed in untreated cells and expressed as a percent increase. Data are Means ± SD, (n = 4). Relative significance, expressed as p-value are calculated based on one-way ANOVA.

HT1376 cells = experiment: ROS estimation with H2DCFDA; format: cell-based, human; conditions: HT1376, 24 h, especially at concentrations above 20 µM
Protocol: as §1, §2, §3

[1] = test system: ATP-binding cassette sub-family A; experiment: Streptavidin pulldown proteomics (LC-MS/MS), 5637 cells; parameters: species or system human; conditions: 5637, 50 µM
Protocol: We used proteomics to identify potential molecular targets of 5c. A pulldown assay with streptavidin-agarose-coated magnetic beads was performed. Briefly, 5637 and MB49 cells were incubated with 50 µM 5c for 10 min and 1 h. After incubation, the cells were rinsed three times with cold phosphate-buffered saline (PBS), and cell lysates were prepared and clarified by centrifugation to remove cellular debris, including nuclei. The clarified lysates were incubated with streptavidin-coated magnetic beads to selectively bind biotinylated contents. Bound proteins were separated from unbound proteins through thorough bead washing. Proteins attached to the beads were eluted and analyzed on an Orbitrap Fusion Tribrid mass spectrometer (Thermo Scientific, New York, NY, USA) coupled with an Ultimate 3000 nano-UPLC system. Samples were trapped on a PepMap100 C18 trap column (5 µm, 0.3 × 5 mm) and separated on a PepMap RSLC C18 column (2 µm, 75 µm × 150 mm) using a gradient from 2 to 40% acetonitrile with 0.1% formic acid over 120 min at […] and 40 °C. […] Proteins were identified and quantified based on peptide spectral matches (PSMs), and fold enrichment compared to controls was calculated to evaluate interaction strength. […]

[2] = biological target: ATP synthase subunit beta (Homo sapiens, UniProt P06576); experiment: as above; format: binding; conditions: 5637, 50 µM
Protocol: (§4) We used proteomics to identify potential molecular targets of 5c. A pulldown assay with streptavidin-agarose-coated magnetic beads was performed. Briefly, 5637 and MB49 cells were incubated with 50 µM 5c for 10 min and 1 h. After incubation, the cells were rinsed three times with cold phosphate-buffered saline (PBS), and cell lysates were prepared and clarified by centrifugation to remove cellular debris, including nuclei. The clarified lysates were incubated with streptavidin-coated magnetic beads to selectively bind biotinylated contents. Bound proteins were separated from unbound proteins through thorough bead washing. Proteins attached to the beads were eluted and analyzed on an Orbitrap Fusion Tribrid mass spectrometer (Thermo Scientific, New York, NY, USA) coupled with an Ultimate 3000 nano-UPLC system. Samples were trapped on a PepMap100 C18 trap column (5 µm, 0.3 × 5 mm) and separated on a PepMap RSLC C18 column (2 µm, 75 µm × 150 mm) using a gradient from 2 to 40% acetonitrile with 0.1% formic acid over 120 min at […] and 40 °C. MS data were acquired in positive mode using data-dependent acquisition (DDA), with precursor scans at 120,000 FWHM (400–2000 m/z), and MS/MS scans in top-speed mode (3 s cycle) using HCD fragmentation (NCE 32%). Proteins were identified and quantified based on peptide spectral matches (PSMs), and fold enrichment compared to controls was calculated to evaluate interaction strength.
(§5) The 5637 and MB49 cells were cultured and treated with higher concentrations of 5c (50 µM) for short period of times (10 min & 60 min) followed by whole cell lysis (WCL) preparation of both treated and untreated cells using modified RIPA buffer [NaCl (100mM), TrisCl (20mM, pH 7.4), EDTA (10 mM), TritonX-100 (0.5%), Glycerol (5%), Protease inhibitor cocktail (1x)] with gentle continuous rotation. The protein content of each WCL was estimated using Pierce™ BCA Protein Assay kit (Thermo-Scientific # 23225). The 100 µL of resuspended Dynabeads™ MyOne™ Streptavidin C1 (Invitrogen # 65001) were washed with PBST (PBS with 0.01% Tween™20) in a magnet stand as recommended in the manufacturer’s instructions. The washed beads were incubated with 200 µg of each WCL in separate tubes at room temperature for 2 h in a gentle end-over-end mixing. After incubation, beads were washed 3–5 times with PBST (0.01% Tween-20) on a magnetic stand and beads were decanted by after spinning and magnetization. The samples were stored at −80 °C till further analysis using LC-MS/MS by the Proteomics and Mass Spectrometry Core Laboratory of Augusta University.

[3] = biological target: Elongation factor 1-delta (EF1δ) (Homo sapiens, UniProt P29692); experiment: as above; format: binding; conditions: 5637, 50 µM
Protocol: as §4, §5

HSC 71 = HSC 71 (Homo sapiens, UniProt P11142); experiment: as above; format: binding; conditions: 5637, 50 µM
Protocol: as §4, §5

HSP 90-alpha (HSP90α) = HSP 90-alpha (HSP90α) (Homo sapiens, UniProt P07900); experiment: as above; format: binding; conditions: 5637, 50 µM
Protocol: as §4, §5

HSP 90-beta (HSP90β) = HSP 90-beta (HSP90β) (Homo sapiens, UniProt P08238); experiment: as above; format: binding; conditions: 5637, 50 µM
Protocol: as §4, §5

[4] = biological target: Ribosomal L1 domain-containing protein 1 (RSL1D1) (Homo sapiens, UniProt O76021); experiment: as above; format: binding; conditions: 5637, 50 µM
Protocol: as §4, §5

[5] = biological target: Poly(U)-binding-splicing factor 60 (PUF60) (Homo sapiens, UniProt Q9UHX1); experiment: as above; conditions: 5637, 50 µM
Protocol: as §4, §5

[6] = test system: ATP-binding cassette sub-family A; experiment: Streptavidin pulldown proteomics (LC-MS/MS), MB49 cells; parameters: species or system murine; conditions: MB-49, 50 µM
Protocol: as §4, §5

[7] = biological target: Poly(U)-binding-splicing factor 60 (PUF60) (Mus musculus, UniProt Q3UEB3); experiment: as above; parameters: species or system murine; conditions: MB-49, 50 µM
Protocol: as §4, §5

[8] = test system: RNA-binding protein 39 (RBM39); experiment: as above; parameters: species or system murine; conditions: MB-49, 50 µM
Protocol: as §4, §5

Chain of Poly(U)-binding-splicing factor 60 (PUF60) (Mus musculus, UniProt Q3UEB3) (Q3UEB3 whole entry): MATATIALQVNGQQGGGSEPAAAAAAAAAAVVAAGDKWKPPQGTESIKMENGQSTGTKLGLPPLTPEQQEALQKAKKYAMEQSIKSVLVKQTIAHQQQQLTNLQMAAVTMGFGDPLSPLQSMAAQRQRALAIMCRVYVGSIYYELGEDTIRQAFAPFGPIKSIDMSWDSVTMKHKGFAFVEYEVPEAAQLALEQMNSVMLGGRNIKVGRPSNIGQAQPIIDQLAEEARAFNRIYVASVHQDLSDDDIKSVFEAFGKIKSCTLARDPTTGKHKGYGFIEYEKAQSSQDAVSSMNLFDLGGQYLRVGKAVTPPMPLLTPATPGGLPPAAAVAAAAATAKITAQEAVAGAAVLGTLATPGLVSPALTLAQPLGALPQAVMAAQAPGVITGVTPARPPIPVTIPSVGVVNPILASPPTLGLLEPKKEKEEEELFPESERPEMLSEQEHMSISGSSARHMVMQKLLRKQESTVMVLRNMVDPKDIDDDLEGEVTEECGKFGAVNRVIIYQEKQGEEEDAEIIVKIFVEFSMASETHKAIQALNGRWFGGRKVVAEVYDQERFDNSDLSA
Chain of Poly(U)-binding-splicing factor 60 (PUF60) (Homo sapiens, UniProt Q9UHX1) (Q9UHX1 whole entry): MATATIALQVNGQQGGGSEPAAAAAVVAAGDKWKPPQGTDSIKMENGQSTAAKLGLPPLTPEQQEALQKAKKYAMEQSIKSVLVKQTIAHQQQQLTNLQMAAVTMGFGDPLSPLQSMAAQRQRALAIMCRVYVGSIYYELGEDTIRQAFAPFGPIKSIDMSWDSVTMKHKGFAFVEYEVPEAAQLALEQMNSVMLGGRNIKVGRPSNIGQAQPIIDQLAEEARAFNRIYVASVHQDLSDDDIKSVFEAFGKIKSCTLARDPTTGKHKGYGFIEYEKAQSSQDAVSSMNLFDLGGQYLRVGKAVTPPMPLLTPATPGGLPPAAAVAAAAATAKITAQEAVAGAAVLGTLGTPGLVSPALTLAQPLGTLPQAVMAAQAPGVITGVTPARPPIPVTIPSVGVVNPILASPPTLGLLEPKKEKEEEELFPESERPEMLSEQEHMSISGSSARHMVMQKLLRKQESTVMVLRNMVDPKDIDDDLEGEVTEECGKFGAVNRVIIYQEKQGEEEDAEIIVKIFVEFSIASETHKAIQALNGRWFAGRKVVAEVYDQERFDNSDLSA
Chain of HSC 71 (P11142 whole entry): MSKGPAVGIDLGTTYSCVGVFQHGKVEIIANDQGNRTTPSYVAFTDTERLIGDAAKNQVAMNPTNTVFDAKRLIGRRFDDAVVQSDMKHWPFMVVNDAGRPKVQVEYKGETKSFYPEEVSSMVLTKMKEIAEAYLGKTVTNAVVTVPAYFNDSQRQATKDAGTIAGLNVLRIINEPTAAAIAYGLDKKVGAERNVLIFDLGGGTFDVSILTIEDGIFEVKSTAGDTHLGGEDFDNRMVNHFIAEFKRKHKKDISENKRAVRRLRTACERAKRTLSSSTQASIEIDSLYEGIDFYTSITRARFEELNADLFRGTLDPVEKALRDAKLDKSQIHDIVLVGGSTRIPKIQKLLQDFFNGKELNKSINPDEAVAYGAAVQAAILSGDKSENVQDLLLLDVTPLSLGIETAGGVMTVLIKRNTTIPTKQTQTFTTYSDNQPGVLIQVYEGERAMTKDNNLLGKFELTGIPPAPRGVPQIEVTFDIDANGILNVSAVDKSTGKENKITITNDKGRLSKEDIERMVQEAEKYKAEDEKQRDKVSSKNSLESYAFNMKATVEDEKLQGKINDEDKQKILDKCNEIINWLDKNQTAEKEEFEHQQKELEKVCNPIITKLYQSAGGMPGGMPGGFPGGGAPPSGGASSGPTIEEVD
Chain of HSP 90-beta (HSP90β) (P08238 whole entry): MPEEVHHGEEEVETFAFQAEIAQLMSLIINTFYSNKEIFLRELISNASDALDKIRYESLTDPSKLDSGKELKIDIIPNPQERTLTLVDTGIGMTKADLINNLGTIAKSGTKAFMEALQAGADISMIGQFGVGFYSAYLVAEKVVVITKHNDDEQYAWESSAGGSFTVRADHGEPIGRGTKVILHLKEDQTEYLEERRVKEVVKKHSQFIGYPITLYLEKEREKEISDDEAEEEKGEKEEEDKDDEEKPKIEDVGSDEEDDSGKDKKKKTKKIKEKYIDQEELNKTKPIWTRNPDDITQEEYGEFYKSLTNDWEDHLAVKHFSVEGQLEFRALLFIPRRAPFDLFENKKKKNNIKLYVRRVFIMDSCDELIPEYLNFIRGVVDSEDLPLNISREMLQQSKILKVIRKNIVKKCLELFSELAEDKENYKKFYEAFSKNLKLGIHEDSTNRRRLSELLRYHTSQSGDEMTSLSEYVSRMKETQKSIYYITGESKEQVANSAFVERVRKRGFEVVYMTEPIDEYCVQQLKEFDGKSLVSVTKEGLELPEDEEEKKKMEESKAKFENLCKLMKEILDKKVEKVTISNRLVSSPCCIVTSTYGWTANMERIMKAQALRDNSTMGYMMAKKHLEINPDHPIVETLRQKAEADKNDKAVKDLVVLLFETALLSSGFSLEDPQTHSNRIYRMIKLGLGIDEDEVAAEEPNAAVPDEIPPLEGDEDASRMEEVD
Chain of Elongation factor 1-delta (EF1δ) (P29692 whole entry): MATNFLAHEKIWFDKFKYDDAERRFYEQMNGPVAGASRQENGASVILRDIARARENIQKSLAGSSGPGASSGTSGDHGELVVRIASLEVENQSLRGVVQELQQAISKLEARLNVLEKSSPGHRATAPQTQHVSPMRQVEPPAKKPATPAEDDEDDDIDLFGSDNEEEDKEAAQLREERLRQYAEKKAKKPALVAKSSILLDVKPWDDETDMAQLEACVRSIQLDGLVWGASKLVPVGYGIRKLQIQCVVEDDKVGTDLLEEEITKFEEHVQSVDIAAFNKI

## CC1CCC2(C(=O)OCCCCOC(=O)CCCCC3SCC4NC(=O)NC43)CCC3(C)C(=CCC4C5(C)CCC(O)C(C)(C)C5CCC43C)C2C1C [Compound 5c, 4-((5-((3aS,4S,6aR)-2-Oxohexahydro-1H-thieno [3,4-d]imidazol-4-yl)pentanoyl)oxy) butyl 3-hydroxy-urs-12-en-28-oate]
5637 cells
  ROS levels: higher levels of ROS than UA
HT1376 cells
  ROS levels: higher levels of ROS than UA
[1]
  Fold Change 10 min/Ctrl: 3
  Fold Change 1 h/Ctrl: 5
[2]
  Fold Change 10 min/Ctrl: 3.29
  Fold Change 1 h/Ctrl: 5
[3]
  Fold Change 10 min/Ctrl: 8
  Fold Change 1 h/Ctrl: 7
HSC 71
  Fold Change 10 min/Ctrl: 5.25
  Fold Change 1 h/Ctrl: 6.25
HSP 90-alpha (HSP90α)
  Fold Change 10 min/Ctrl: 119
  Fold Change 1 h/Ctrl: 111
HSP 90-beta (HSP90β)
  Fold Change 10 min/Ctrl: 93
  Fold Change 1 h/Ctrl: 97
[4]
  Fold Change 10 min/Ctrl: 5
  Fold Change 1 h/Ctrl: 4
[5]
  Fold Change 10 min/Ctrl: 6
  Fold Change 1 h/Ctrl: 5
[6]
  Fold Change 10 min/Ctrl: 1
  Fold Change 1 h/Ctrl: 2
[7]
  Fold Change 10 min/Ctrl: 2.33
  Fold Change 1 h/Ctrl: 3.33
[8]
  Fold Change 10 min/Ctrl: 2
  Fold Change 1 h/Ctrl: 1.71
